Reference: US20250154099A1, “PREPARATION METHOD OF 2-PHENYLINDOLE DERIVATIVES AND APPLICATION THEREOF” (Shihezi University, priority 2022, published 2025)
In brackets after ≈: the same amount, converted by molar mass. Read-outs that look alike come from different tables or passages of the source.

How the values were obtained:
[1] = system: Candida albicans BNCC186382; test: MIC by microdilution method, sensitive Candida albicans; format: cell-based; details: Candida albicans, read-out: MIC Candida albicans
Source text: (§1) Used bacteria: including drug-resistant bacteria and sensitive bacteria: the used sensitive strains include Cryptococcus neoformans BNCC225501, Candida albicans BNCC186382, Aspergillus fumigatus Fresenius BNCC338385, Escherichia coli BNCC336902, Staphylococcus aureus BNCC186335 and Pseudomonas aeruginosa Migula BNCC337940, and the used drug-resistant Candida albicans is clinically isolated azole multi-drug resistant Candida albicans (CA10) donated by Qianfoshan Hospital in Shandong Province. The strains are stored in normal saline containing 20% glycerol at −80° C. for a long time. Before operation, the strains are lined and transferred to a YPD solid plate, and subjected to static culture at 30° C. for 24 h; single colonies are selected and transferred to a YPD liquid medium, and cultured at 200 rpm at 30° C. overnight; and the overnight cultured bacterial solution is inoculated into a new YPD liquid medium at a ratio of about 1:100, and subjected to shaking culture at 200 rpm at 30° C. for 4 h so that Candida albicans is in a logarithmic phase.
(§2) Culture medium: the culture medium used by the microdilution method is RPMI-1640 culture medium (Gibco).
(§3) 1.2 Operation and results of detection of minimum inhibitory concentration (MIC) of the compounds and the azole drugs by the microdilution method: the MIC of the synthesized compound and the azole drug fluconazole for the standard strains is detected by the microdilution method according to fungal sensitivity detection method (M27-A3) established by the Clinical and Laboratory Standards Institute (CLSI). Specific steps are as follows: the prepared strain concentration is adjusted to 0.5-2.5×10^3 CFU/mL by using RPMI-1640 medium. 200 μL of bacterial solution containing the highest concentration of the drug to be detected is added into the first well of a 96-well plate, and 100 μL of blank bacterial solution without drug is added into each of the other wells; the bacterial solution is diluted to a series of concentration gradients by a double gradient dilution method; the well plate is subjected to static culture at constant temperature of 35° C. for 24 h; after the absorbance (OD) of each concentration gradient at 570 nm is detected by a microplate reader and the absorbance of a blank medium is subtracted, the growth rate=dosing hole value/control hole value ×100%, the inhibition rate=1−growth rate, and the minimum concentration with the inhibition rate greater than 80% is the minimum inhibitory concentration (MIC) value.

[2] = system: Cryptococcus neoformans BNCC225501; test: MIC by microdilution method, sensitive Cryptococcus neoformans; format: cell-based; details: Cryptococcus neoformans, read-out: MIC Cryptococcus neoformans
Source text: as §1, §2, §3

[3] = system: Aspergillus fumigatus Fresenius BNCC338385; test: MIC by microdilution method, sensitive Aspergillus fumigatus Fresenius; format: cell-based; details: Aspergillus fumigatus, 24 h, read-out: MIC Aspergillus fumigatus Fresenius
Source text: as §1, §2, §3

[4] = system: Staphylococcus aureus BNCC186335; test: MIC by microdilution method, sensitive Staphylococcus aureus; format: cell-based; details: read-out: MIC Staphylococcus aureus
Source text: as §1, §2, §3

[5] = system: Escherichia coli BNCC336902; test: MIC by microdilution method, sensitive Escherichia coli; format: cell-based; details: read-out: MIC Escherichia coli
Source text: as §1, §2, §3

[6] = system: Pseudomonas aeruginosa Migula BNCC337940; test: MIC by microdilution method, sensitive Pseudomonas aeruginosa Migula; format: cell-based; details: 24 h, read-out: MIC Pseudomonas aeruginosa Migula
Source text: as §1, §2, §3

[7] = system: Drug-resistant Candida albicans CA10; test: MIC by microdilution method, drug-resistant Candida albicans CA10; format: cell-based; details: clinically isolated azole multi-drug resistant strain CA10; 24 h
Source text: as §1, §2, §3

[8] = system: Candida albicans CA10; test: Checkerboard microdilution assay of compound combined with fluconazole, FICI model; format: cell-based; details: for MIC of compound combined: compound concentration in combination with fluconazole; for MIC of compound combined / MIC of azole (fluconazole) combined: inhibition rate about 80%; for FICI: compound plus fluconazole; for MIC of azole (fluconazole) combined: fluconazole concentration in combination with the compound; for MIC: Candida albicans
Experimental: The concentration of Candida albicans CA10 is adjusted to 0.5-2.5×10^3 CFU/mL by using RPMI-1640 medium, and the diluted bacterial solution is used for preparing a working solution of the compound and the azole drug with double concentration gradient. 50 μl of working solution of double concentration of azole drugs and working solution of double concentration of the compound to be detected at each concentration gradient are added in the longitudinal (A-H) direction and transverse (1-12) direction of the 96-well plate respectively, so that the final drug concentration range of fluconazole is 4-64 μg/ml, and the drug concentration range of the compound is 256-16 μg/ml. The 96-well plate is cultured in a constant temperature incubator at 35° C. for 24 h. The amount of viable bacteria is detected with an XTT cell proliferation assay kit, and the absorbance of each well at 490 nm wavelength is detected by the microplate reader. Growth rate=dosing well value/control well value×100%, and inhibition rate=1−growth rate. The MIC when the inhibition rate is about 80% is a break point of the combination of two drugs.
The combination data of the compound and the azole drug collected by the checkerboard microdilution assay are analyzed by an FICI (fractional inhibitory concentration index) model, and the interaction effects are evaluated.
The FICI model can be expressed by the following formula: […]
Wherein: MICA and MICB are MIC values of drug A and drug B used separately, while MICAB and MICBA are the concentrations of drug A and drug B corresponding to the minimum effective dose of the combination of drug A and drug B.

[9] = system: RAW 264.7 murine macrophage cells; test: MTT cytotoxicity test on RAW 264.7; format: cell-based, mouse; details: for IC50: Mus musculus, RAW264.7, 24 h, read-out: IC50 RAW 264.7 cell viability
Experimental: 3.1.1 Cell line: RAW 264.7 murine macrophage cells are donated by Shihezi University College of Pharmacy, and cultured in a 37° C. constant temperature incubator with high glucose DMEM medium (Gibco), 10% FBS serum (Gibco) and 5% CO2, and subculturing and related experimental operation are conducted when cell fusion degree reaches about 70-80%.
3.1.2 Materials and reagents: fetal bovine serum (American BI company), DMEM high glucose medium (American Gibco company), penicillin-streptomycin solution (Shanghai Solarbio company), PBS buffer solution (American Gibco company), isopropyl alcohol (analytically pure), dimethyl sulfoxide (DMSO) (Shanghai Solarbio company), and MTT powder (Shanghai Solarbio company).
Logarithmic RAW 264.7 cells are taken; cell suspension is prepared with a complete medium; the concentration of the cell suspension is adjusted to about 5×10^4 cells/mL; 200 μl of cell suspension is added into each hole of the 96-well culture plate and cultured in 5% CO2 in an incubator at 37° C. for about 24 h until the cells grow to the cell wall (at density of 50%); the medium is absorbed by a 5 ml needle tube or negative pressure; RAW 264.7 is divided into a blank group, a solvent control group and a drug administration group; in the blank group, there is no cell, and a medium, MTT and DMSO are added; in the solvent control group, cells, the same concentration of drug dissolving media, culture solution, MTT and DMSO are added; in the drug administration group, medical solution for diluting the concentration gradient with serum-free medium (containing 1% PE) is added; each concentration shall set at least 3 complex wells; 100 μl of medical solution is added into each well; and the culture plate is continued to be incubated in the incubator for 24 h. […] 100 μl of DMSO is added into each well to dissolve formazan crystals, and shaken in a shaker for 10 min at low speed to fully dissolve the crystals. The absorbance (OD) value of each well at 490 nm is determined by the microplate reader, and the cell viability is calculated by the formula: Cell viability (%)=(OD drug administration group−OD blank group)/(OD solvent control group−OD blank group)× 100%.
OD values at 490 nm are determined by the experimental method in each group, and the data are subjected to one-way analysis of variance by Graphpad prism 8.0 software.

[10] = BNCC186382, sensitive strain, 35° C., 24 h, minimum concentration with inhibition rate greater than 80%
[11] = BNCC225501, sensitive strain, 35° C., 24 h, minimum concentration with inhibition rate greater than 80%
[12] = sensitive strain, 35° C., minimum concentration with inhibition rate greater than 80%
[13] = BNCC186335, sensitive strain, 35° C., 24 h, minimum concentration with inhibition rate greater than 80%
[14] = BNCC336902, sensitive strain, 35° C., 24 h, minimum concentration with inhibition rate greater than 80%

Row | SMILES | MIC80 Drug-resistant Candida albicans CA10 [7] [µg/mL] | MIC [1, 10] [µg/mL] | MIC [2, 11] [µg/mL] | MIC [3, 12] [µg/mL] | MIC [4, 13] [µg/mL] | MIC [5, 14] [µg/mL] | MIC [6, 12] [µg/mL] | other results
1 | Cc1ccccc1-c1cc2ccccc2[nH]1 [Compound 2] | 32 (≈ 154 µM) | – | – | – | – | – | – | MIC ([1]; BNCC186382, 24 h): 4 µg/mL (≈ 19.3 µM); MIC ([2]; BNCC225501, 24 h): 2 µg/mL (≈ 9.65 µM); MIC [3]: 16 µg/mL (≈ 77.2 µM); MIC ([4]; BNCC186335, 24 h): 8 µg/mL (≈ 38.6 µM); MIC ([5]; BNCC336902, 24 h): 8 µg/mL (≈ 38.6 µM); MIC [6]: 256 µg/mL (≈ 1240 µM); MIC of compound combined ([8]; CA10): 8 µg/mL; FICI ([8]; CA10): 0.313; MIC of azole (fluconazole) combined ([8]; CA10): 8 µg/mL; MIC ([8]; CA10, read-out: MIC of compound used separately): 32 µg/mL; IC50 [9]: 50 µM
2 | Clc1ccc2cc(-c3ccccc3)[nH]c2c1 [Compound 4] | 32 (≈ 141 µM) | 16 (≈ 70.3 µM) | 16 (≈ 70.3 µM) | 8 (≈ 35.1 µM) | 8 (≈ 35.1 µM) | 16 (≈ 70.3 µM) | 16 (≈ 70.3 µM) | MIC of compound combined ([8]; CA10): 16 µg/mL; FICI ([8]; CA10): 0.563; MIC of azole (fluconazole) combined ([8]; CA10): 8 µg/mL; MIC ([8]; CA10, compound alone, read-out: MIC of compound used separately): 32 µg/mL; sensitivity of clinical multi-drug resistant strain CA10 to the azole drug ([8]; combination with fluconazole): can improve the sensitivity; toxicity to RAW 264.7 cells ([9]; 24 h): no obvious toxicity; IC50 [9]: 100 µM
3 | c1ccc2[nH]c(-c3ccc4c(c3)OCO4)cc2c1 [Compound 15] | > 256 | – | – | – | – | – | – | MIC ([1]; BNCC186382, 24 h): 256 µg/mL (≈ 1080 µM); MIC ([2]; BNCC225501, 24 h): 256 µg/mL (≈ 1080 µM); MIC [3]: 256 µg/mL (≈ 1080 µM); MIC ([4]; BNCC186335, 24 h): 256 µg/mL (≈ 1080 µM); MIC ([5]; BNCC336902, 24 h): 256 µg/mL (≈ 1080 µM); MIC [6]: 16 µg/mL (≈ 67.4 µM)
4 | Cc1ccc2[nH]c(-c3ccccc3)cc2c1 [Compound 16] | > 256 | 256 (≈ 1240 µM) | 256 (≈ 1240 µM) | 256 (≈ 1240 µM) | 256 (≈ 1240 µM) | 16 (≈ 77.2 µM) | 256 (≈ 1240 µM) | –
5 | COc1ccc2[nH]c(-c3ccccc3)cc2c1 [Compound 18] | > 256 | 256 (≈ 1150 µM) | 256 (≈ 1150 µM) | 256 (≈ 1150 µM) | 256 (≈ 1150 µM) | 256 (≈ 1150 µM) | 256 (≈ 1150 µM) | –
6 | COC(=O)c1ccc2[nH]c(-c3ccccc3)cc2c1 [Compound 19] | > 256 | 8 (≈ 31.8 µM) | 256 (≈ 1020 µM) | 16 (≈ 63.7 µM) | 8 (≈ 31.8 µM) | 256 (≈ 1020 µM) | 32 (≈ 127 µM) | –
7 | COC(=O)c1ccc2cc(-c3ccccc3)[nH]c2c1 [Compound 20] | > 256 | 32 (≈ 127 µM) | 256 (≈ 1020 µM) | 256 (≈ 1020 µM) | 32 (≈ 127 µM) | 256 (≈ 1020 µM) | 8 (≈ 31.8 µM) | –
8 | Clc1ccc2[nH]c(-c3ccccc3)cc2c1 [Compound 21] | > 256 | > 256 | > 256 | > 256 | > 256 | > 256 | > 256 | –
9 | Fc1ccc2[nH]c(-c3ccccc3)cc2c1 [Compound 22] | > 256 | 256 (≈ 1210 µM) | 8 (≈ 37.9 µM) | 256 (≈ 1210 µM) | 16 (≈ 75.7 µM) | 32 (≈ 151 µM) | 256 (≈ 1210 µM) | –
10 | Brc1ccc2cc(-c3ccccc3)[nH]c2c1 [Compound 23] | > 256 | 256 (≈ 941 µM) | 256 (≈ 941 µM) | 256 (≈ 941 µM) | 256 (≈ 941 µM) | 256 (≈ 941 µM) | 8 (≈ 29.4 µM) | –
11 | OC(Cn1cncn1)(Cn1cncn1)c1ccc(F)cc1F [Fluconazole, fluconazole, reference compound] | > 128 | 2 (≈ 6.53 µM) | 2 (≈ 6.53 µM) | 2 (≈ 6.53 µM) | – | – | – | MIC ([8]; CA10, fluconazole alone, read-out: MIC of azole (fluconazole) used separately): > 128 µg/mL
